The record followed here is ChEMBL document CHEMBL5291721, “A preclinical secondary pharmacology resource illuminates target-adverse drug reaction associations of marketed drugs” (Nat Commun, 2023).

The target of one experiment is T1, Androgen receptor (Rattus norvegicus, UniProt P15207).
T1 sequence (P15207 whole entry): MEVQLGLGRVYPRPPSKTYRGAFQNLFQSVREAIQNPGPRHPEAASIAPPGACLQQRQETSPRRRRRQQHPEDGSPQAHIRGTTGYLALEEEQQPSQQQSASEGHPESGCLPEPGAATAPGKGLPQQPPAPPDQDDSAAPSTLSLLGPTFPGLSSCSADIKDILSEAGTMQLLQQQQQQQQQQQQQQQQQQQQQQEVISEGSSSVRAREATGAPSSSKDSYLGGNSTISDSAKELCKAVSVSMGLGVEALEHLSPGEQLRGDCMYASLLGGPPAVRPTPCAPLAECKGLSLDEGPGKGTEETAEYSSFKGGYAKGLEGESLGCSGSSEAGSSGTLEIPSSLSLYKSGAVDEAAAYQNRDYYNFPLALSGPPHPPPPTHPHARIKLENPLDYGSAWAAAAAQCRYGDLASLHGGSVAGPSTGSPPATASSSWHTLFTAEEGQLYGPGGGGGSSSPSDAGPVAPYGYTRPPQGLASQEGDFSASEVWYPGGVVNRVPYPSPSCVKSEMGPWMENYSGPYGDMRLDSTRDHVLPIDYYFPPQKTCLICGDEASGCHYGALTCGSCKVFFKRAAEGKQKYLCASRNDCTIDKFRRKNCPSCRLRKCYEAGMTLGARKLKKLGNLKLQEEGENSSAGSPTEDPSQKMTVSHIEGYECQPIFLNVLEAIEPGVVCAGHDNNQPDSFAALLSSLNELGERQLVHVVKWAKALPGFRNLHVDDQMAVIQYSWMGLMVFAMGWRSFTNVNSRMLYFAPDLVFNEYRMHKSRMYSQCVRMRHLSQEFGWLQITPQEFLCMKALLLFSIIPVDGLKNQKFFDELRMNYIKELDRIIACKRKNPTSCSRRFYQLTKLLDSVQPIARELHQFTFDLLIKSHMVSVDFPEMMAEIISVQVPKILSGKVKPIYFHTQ
The class given is functional.

For experiment [1], the target named is T2, 5-hydroxytryptamine receptor 1A (Homo sapiens, UniProt P08908).
T2 sequence (P08908 whole entry): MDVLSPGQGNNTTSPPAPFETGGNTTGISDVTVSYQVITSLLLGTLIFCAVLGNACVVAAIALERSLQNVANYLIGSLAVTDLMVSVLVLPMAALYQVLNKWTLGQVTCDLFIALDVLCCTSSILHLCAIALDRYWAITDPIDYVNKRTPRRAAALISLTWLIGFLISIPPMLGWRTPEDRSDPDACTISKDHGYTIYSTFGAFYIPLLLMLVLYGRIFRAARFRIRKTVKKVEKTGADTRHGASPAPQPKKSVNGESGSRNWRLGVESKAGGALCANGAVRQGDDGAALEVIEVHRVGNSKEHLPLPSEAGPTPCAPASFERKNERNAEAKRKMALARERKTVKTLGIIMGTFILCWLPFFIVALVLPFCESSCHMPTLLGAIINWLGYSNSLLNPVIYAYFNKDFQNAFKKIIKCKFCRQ

For experiment [2], the target named is Gamma-aminobutyric acid receptor subunit alpha-1/alpha-2/beta-2/gamma-2 (Homo sapiens, UniProt P14867+P18507+P47869+P47870). Type of experiment: functional, cell-based.
Chain of Gamma-aminobutyric acid receptor subunit alpha-1/alpha-2/beta-2/gamma-2 (P14867 whole entry): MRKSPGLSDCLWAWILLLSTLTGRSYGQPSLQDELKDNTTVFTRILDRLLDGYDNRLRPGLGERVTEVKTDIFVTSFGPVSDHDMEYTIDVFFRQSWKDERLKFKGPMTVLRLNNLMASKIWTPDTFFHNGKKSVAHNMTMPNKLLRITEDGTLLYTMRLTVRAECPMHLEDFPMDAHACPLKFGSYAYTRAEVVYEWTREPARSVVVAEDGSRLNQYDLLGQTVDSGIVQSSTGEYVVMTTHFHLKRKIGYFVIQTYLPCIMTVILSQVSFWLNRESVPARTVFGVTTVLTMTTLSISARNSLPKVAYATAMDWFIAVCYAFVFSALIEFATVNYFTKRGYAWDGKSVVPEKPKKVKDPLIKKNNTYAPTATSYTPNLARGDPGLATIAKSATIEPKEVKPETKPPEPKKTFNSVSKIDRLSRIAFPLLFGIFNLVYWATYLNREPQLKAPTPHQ
Chain of Gamma-aminobutyric acid receptor subunit alpha-1/alpha-2/beta-2/gamma-2 (P47870 whole entry): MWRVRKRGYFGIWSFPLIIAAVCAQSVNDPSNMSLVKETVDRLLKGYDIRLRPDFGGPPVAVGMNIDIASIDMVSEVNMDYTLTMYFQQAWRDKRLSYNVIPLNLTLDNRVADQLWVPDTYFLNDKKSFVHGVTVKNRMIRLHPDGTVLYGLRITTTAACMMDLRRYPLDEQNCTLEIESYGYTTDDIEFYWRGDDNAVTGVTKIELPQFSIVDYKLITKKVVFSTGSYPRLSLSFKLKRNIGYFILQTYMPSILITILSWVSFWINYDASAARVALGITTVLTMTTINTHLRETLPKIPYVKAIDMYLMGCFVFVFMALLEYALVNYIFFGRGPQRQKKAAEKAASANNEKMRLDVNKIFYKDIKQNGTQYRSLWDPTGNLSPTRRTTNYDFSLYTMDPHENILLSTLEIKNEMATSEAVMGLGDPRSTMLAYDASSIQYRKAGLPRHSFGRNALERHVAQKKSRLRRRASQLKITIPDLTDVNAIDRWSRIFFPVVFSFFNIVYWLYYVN
Chain of Gamma-aminobutyric acid receptor subunit alpha-1/alpha-2/beta-2/gamma-2 (P18507 whole entry): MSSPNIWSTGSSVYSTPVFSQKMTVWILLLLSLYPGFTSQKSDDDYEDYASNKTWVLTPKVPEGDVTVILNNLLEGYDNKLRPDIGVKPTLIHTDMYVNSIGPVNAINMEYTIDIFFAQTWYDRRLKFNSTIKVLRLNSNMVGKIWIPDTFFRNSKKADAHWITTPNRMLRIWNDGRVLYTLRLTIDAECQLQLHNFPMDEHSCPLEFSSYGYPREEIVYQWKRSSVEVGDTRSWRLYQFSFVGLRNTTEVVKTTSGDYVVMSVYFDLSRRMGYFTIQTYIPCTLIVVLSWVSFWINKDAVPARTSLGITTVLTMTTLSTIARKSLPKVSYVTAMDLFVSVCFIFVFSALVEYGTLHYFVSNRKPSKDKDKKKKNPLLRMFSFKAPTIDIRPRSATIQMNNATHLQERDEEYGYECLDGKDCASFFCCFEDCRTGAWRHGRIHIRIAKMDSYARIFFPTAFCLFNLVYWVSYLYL
Chain of Gamma-aminobutyric acid receptor subunit alpha-1/alpha-2/beta-2/gamma-2 (P47869 whole entry): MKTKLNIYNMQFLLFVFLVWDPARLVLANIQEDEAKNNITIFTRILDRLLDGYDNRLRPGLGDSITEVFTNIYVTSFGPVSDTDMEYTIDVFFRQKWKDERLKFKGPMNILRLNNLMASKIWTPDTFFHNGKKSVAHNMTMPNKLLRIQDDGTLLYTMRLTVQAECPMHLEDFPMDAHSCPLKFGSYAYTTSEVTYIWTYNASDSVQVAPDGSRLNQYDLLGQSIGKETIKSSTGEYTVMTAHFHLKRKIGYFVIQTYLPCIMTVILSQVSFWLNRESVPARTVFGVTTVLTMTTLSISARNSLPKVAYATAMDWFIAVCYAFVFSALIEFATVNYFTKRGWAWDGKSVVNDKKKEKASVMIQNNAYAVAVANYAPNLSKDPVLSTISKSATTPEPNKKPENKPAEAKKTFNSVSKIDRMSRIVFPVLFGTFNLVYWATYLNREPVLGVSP
Another experiment addresses Histamine H2 receptor (Homo sapiens, UniProt P25021).
The target in experiment [3] is 5-hydroxytryptamine receptor 2B (Homo sapiens, UniProt P41595).
Chain of 5-hydroxytryptamine receptor 2B (P41595 whole entry): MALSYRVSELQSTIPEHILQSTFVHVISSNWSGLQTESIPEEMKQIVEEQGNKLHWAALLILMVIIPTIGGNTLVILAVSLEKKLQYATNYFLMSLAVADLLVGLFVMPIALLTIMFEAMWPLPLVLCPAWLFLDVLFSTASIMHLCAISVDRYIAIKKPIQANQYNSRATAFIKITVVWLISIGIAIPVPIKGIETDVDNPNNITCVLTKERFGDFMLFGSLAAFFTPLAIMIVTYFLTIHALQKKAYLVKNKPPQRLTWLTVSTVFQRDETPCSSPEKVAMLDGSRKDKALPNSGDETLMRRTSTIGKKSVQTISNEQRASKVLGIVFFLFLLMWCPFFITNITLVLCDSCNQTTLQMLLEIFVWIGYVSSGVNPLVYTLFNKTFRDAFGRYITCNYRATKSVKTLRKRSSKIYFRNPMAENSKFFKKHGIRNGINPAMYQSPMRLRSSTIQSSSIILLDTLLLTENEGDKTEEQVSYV
Another experiment has as its target T3, Progesterone receptor (Homo sapiens, UniProt P06401).
T3 sequence (P06401 whole entry): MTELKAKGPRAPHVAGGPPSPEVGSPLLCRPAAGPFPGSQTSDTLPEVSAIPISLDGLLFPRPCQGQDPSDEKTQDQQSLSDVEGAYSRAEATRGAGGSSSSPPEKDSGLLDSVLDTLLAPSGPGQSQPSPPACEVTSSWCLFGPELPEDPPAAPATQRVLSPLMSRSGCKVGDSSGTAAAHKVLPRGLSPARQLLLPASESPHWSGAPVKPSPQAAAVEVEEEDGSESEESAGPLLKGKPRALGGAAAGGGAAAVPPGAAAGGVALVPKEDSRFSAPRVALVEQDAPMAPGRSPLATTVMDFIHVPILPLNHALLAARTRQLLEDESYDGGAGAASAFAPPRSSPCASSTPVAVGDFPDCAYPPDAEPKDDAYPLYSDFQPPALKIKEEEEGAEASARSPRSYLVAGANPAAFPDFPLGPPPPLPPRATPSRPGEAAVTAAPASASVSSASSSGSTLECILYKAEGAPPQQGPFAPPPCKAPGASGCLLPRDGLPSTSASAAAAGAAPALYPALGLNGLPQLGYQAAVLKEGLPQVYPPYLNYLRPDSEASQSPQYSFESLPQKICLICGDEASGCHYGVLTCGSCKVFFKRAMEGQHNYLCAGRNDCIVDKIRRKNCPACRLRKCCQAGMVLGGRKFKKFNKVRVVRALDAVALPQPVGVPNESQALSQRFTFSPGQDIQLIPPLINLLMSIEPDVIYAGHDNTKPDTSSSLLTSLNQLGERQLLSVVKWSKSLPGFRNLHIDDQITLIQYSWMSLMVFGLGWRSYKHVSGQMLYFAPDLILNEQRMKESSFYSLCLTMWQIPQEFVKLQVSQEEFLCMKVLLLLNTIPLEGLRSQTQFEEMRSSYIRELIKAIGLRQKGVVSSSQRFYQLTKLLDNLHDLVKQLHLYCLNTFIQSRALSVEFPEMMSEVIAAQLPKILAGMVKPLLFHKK

Experiment [4] concerns the target T4, Alpha-2A adrenergic receptor (Homo sapiens, UniProt P08913).
T4 sequence (P08913 whole entry): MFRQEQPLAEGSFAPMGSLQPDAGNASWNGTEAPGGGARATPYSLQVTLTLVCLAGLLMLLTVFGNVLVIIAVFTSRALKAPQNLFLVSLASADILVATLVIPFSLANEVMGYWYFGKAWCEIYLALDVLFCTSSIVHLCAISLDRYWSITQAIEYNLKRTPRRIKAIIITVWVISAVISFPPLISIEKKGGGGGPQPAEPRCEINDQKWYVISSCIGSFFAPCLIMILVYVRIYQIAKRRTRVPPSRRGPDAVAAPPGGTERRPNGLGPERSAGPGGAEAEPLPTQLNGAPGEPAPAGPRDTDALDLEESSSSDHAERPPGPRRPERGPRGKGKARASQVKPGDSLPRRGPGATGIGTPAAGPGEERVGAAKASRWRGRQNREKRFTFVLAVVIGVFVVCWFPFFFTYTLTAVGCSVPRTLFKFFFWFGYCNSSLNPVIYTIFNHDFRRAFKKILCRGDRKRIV
Note: assay procedure not described here.

Chain of Histamine H2 receptor (P25021 whole entry): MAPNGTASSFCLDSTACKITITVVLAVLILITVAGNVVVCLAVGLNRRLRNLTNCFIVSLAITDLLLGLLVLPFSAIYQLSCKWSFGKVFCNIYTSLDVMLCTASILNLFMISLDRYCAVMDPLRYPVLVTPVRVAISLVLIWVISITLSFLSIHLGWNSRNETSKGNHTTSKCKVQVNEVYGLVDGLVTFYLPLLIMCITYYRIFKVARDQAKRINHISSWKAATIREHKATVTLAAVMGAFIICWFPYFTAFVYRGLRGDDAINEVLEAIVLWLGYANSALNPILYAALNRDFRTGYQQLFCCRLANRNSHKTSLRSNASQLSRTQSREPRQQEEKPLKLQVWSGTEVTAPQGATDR

Turning to `O=C1C(O)=C([C@H]2CC[C@H](c3ccc(Cl)cc3)CC2)C(=O)c2ccccc21` [ATOVAQUONE], the AC50 on Androgen receptor is above 30 µM.

Take `COc1ccc(CCNCC(O)COc2cccc(C)c2)cc1OC` (stereo unspecified) [BEVANTOLOL]: the AC50 in experiment [1] came to 1.56 µM.

In experiment [2], `CC(CC1c2ccccc2CCc2ccccc21)CN(C)C` (stereo unspecified) [BUTRIPTYLINE] registered an AC50 above 30 µM.

Turning to `Clc1ccccc1C(c1ccccc1)(c1ccccc1)n1ccnc1` [CLOTRIMAZOLE], the AC50 was 17.4 µM on Histamine H2 receptor, above 10 µM in experiment [3] and above 10 µM in experiment [1].

Turning to `COc1ccc2c3c1O[C@H]1[C@@H](O)CC[C@H]4[C@@H](C2)N(C)CC[C@@]341` [DIHYDROCODEINE], the AC50 in experiment [2] was above 30 µM.

As to `Fc1ccc(C(c2ccccc2)(c2ccccc2F)n2ccnc2)cc1` (stereo unspecified) [FLUTRIMAZOLE], on Androgen receptor, the AC50 is above 30 µM.

In the case of `Cc1c(OCC(F)(F)F)ccnc1C[S+]([O-])c1nc2ccccc2[nH]1` (stereo unspecified) [LANSOPRAZOLE], the AC50 at Histamine H2 receptor was 8.52 µM; in experiment [3], above 10 µM; on Progesterone receptor, above 30 µM; in experiment [4], above 10 µM; in experiment [1], above 10 µM.

Turning to `NC(=O)CN1CC(O)CC1=O` (stereo unspecified) [OXIRACETAM], the AC50 (on Androgen receptor; in experiment [2]) was above 30 µM each time.

`C[C@@H]1O[C@@H](O[C@@H]2C=C3CC[C@@H]4[C@H](CC[C@]5(C)[C@@H](c6ccc(=O)oc6)CC[C@]45O)[C@@]3(C)CC2)[C@H](O)[C@H](O)[C@H]1O` [PROSCILLARIDIN] yielded an AC50 on Androgen receptor above 30 µM.

Turning to `CC/C(=C(\c1ccccc1)c1ccc(OCCN(C)C)cc1)c1ccccc1` [TAMOXIFEN], the AC50 at Histamine H2 receptor was 1.75 µM; in experiment [3], 0.896 µM; in experiment [4] it was above 10 µM; in experiment [1] it was above 10 µM.

For `COc1cccc(C2(O)CCCCC2CN(C)C)c1` (stereo unspecified) [TRAMADOL], the AC50 was above 10 µM at Histamine H2 receptor, above 10 µM in experiment [3], above 30 µM on Progesterone receptor and above 10 µM in experiment [4].

As to `Cc1nnc2n1-c1ccc(Cl)cc1C(c1ccccc1Cl)=NC2` [TRIAZOLAM], the AC50 is above 30 µM on Progesterone receptor and above 10 µM in experiment [1].
